According to ChEMBL document CHEMBL3233011, “Structural modifications of CH(OH)-DAPYs as new HIV-1 non-nucleoside reverse transcriptase inhibitors” (Bioorg Med Chem, 2014):

Experiments:
[1] = Cytotoxicity against mock-infected human MT4 cells after 5 days by MTT assay; type: cell-based
[2] = tested on: Human immunodeficiency virus 1; test: Antiviral activity against HIV1 3B infected in human MT4 cells assessed as inhibition of viral cytopathogenicity after 5 days by MTT assay; type: functional, organism-based; conditions: Human immunodeficiency virus 1, 3B, MT4, 120 h
[3] = tested on: Human immunodeficiency virus 1; test: Antiviral activity against HIV1 harboring RT K103N/Y181C double mutant infected in human MT4 cells assessed as inhibition of viral cytopathogenicity after 5 days by MTT assay; type: functional, organism-based; conditions: Human immunodeficiency virus 1, MT4, 120 h
[4] = tested on: Human immunodeficiency virus 2; test: Antiviral activity against HIV2 ROD infected in human MT4 cells assessed as inhibition of viral cytopathogenicity after 5 days by MTT assay; type: functional, organism-based; conditions: Human immunodeficiency virus 2, ISOLATE ROD, MT4, 120 h
[5] = target: Human immunodeficiency virus type 1 reverse transcriptase (Human immunodeficiency virus 1, UniProt Q72547); test: Inhibition of wild-type HIV1 reverse transcriptase p66/p51 after 40 mins by spectrophotometry
[6] = tested on: Human immunodeficiency virus 1; test: Ratio of nevirapine EC50 to compound EC50 for HIV1 3B infected in human MT4 cells; type: functional
[7] = tested on: Human immunodeficiency virus 1; test: Ratio of delaviridine EC50 to compound EC50 for HIV1 3B infected in human MT4 cells; type: functional

SMILES | CC50 at 120 h [1] [µM] | EC50 [2] [µM] | EC50 [3] [µM] | EC50 [4] [µM] | IC50 [5] [µM] | Ratio EC50 [6] | Ratio EC50 [7]
COc1ccc(C(C)(O)c2ccnc(Nc3ccc(C#N)cc3)n2)cc1 (configuration not stated) | 35.9 | 0.346 | > 35.9 | > 35.9 | – | – | –
CC(C)(C)c1ccc(C(C)(O)c2ccnc(Nc3ccc(C#N)cc3)n2)cc1 (configuration not stated) | 31.8 | 0.564 | > 31.8 | > 31.8 | – | – | –
CC(O)(c1ccccc1)c1ccnc(Nc2ccc(C#N)cc2)n1 (configuration not stated) | 45.4 | 0.288 | > 45.4 | > 45.4 | 2 | – | –
Cc1ccc(C(C)(O)c2ccnc(Nc3ccc(C#N)cc3)n2)cc1 (configuration not stated) | 39.3 | 0.067 | > 39.9 | > 39.9 | 0.16 | 2 | 2
CC(O)(c1ccc(F)cc1)c1ccnc(Nc2ccc(C#N)cc2)n1 (configuration not stated) | 43.1 | 2.5 | > 43.1 | > 43.1 | – | – | –
CC(O)(c1ccc(Cl)cc1)c1ccnc(Nc2ccc(C#N)cc2)n1 (configuration not stated) | 39 | 0.317 | > 39 | > 39 | – | – | –
CC(O)(c1ccc(Br)cc1)c1ccnc(Nc2ccc(C#N)cc2)n1 (configuration not stated) | 28.2 | 0.305 | > 28.2 | > 28.2 | – | – | –
CC(O)(c1cccc(F)c1)c1ccnc(Nc2ccc(C#N)cc2)n1 (configuration not stated) | 53.2 | 0.201 | > 53.2 | > 49.6 | 0.63 | – | –
CC(O)(c1cccc(Cl)c1)c1ccnc(Nc2ccc(C#N)cc2)n1 (configuration not stated) | 37.5 | 0.257 | > 37.5 | > 37.5 | – | – | –
CC(O)(c1cccc(Br)c1)c1ccnc(Nc2ccc(C#N)cc2)n1 (configuration not stated) | 33.7 | 0.191 | > 33.7 | > 33.7 | 0.39 | – | –
Cc1cnc(Nc2ccc(C#N)cc2)nc1C(C)(O)c1ccc(F)cc1 (configuration not stated) | 61.5 | > 61.5 | – | > 61.5 | – | – | –
Cc1cc(C(C)(O)c2ccc(F)cc2)nc(Nc2ccc(C#N)cc2)n1 (configuration not stated) | 38.2 | 3.55 | > 38.2 | > 38.2 | – | – | –
CC(O)(c1ccnc(Nc2ccc(C#N)cc2)n1)c1cccc2ccccc12 (configuration not stated) | 30.7 | 0.388 | > 30.7 | > 30.7 | – | – | –
C=CC(O)(c1ccc(Br)cc1)c1ccnc(Nc2ccc(C#N)cc2)n1 (configuration not stated) | 31.7 | 0.355 | > 31.7 | > 31.7 | – | – | –
CCC(O)(c1ccc(Br)cc1)c1ccnc(Nc2ccc(C#N)cc2)n1 (configuration not stated) | 31.3 | 2.07 | > 31.3 | > 31.3 | – | – | –
N#Cc1ccc(Nc2nccc(C(O)(c3ccc(Br)cc3)C3CC3)n2)cc1 (configuration not stated) | 33.2 | 3.11 | > 33.2 | > 33.2 | – | – | –
Cc1cnc(Nc2ccc(C#N)cc2)nc1C(C)(O)c1ccc(C(C)(C)C)cc1 (configuration not stated) | 31.1 | 7.21 | > 31.1 | > 31.1 | – | – | –
Cc1cc(C(C)(O)c2ccc(C(C)(C)C)cc2)nc(Nc2ccc(C#N)cc2)n1 (configuration not stated) | 30.4 | 1.25 | > 30.4 | > 30.4 | – | – | –
CC(C)Nc1cccnc1N1CCN(C(=O)c2cc3cc(NS(C)(=O)=O)ccc3[nH]2)CC1 [DELAVIRDINE] | > 43.8 | 0.81 | > 43.8 | – | – | – | –
O=C1Nc2ccc(Cl)cc2[C@@](C#CC2CC2)(C(F)(F)F)O1 [EFAVIRENZ] | > 6.3 | 0.022 | – | – | – | – | –
Cc1cc(C#N)cc(C)c1Oc1nc(Nc2ccc(C#N)cc2)nc(N)c1Br [ETRAVIRINE] | – | – | – | > 27.8 | – | – | –
Cc1ccnc2c1NC(=O)c1cccnc1N2C1CC1 [NEVIRAPINE] | > 15 | – | 0.901 | – | – | – | –
Cc1cn([C@H]2C[C@H](N=[N+]=[N-])[C@@H](CO)O2)c(=O)[nH]c1=O [ZIDOVUDINE] | > 93.6 | – | 0.008 | – | – | – | –
